In assay [1] the test system is MB cells isolated from Ptch1+/− mice. The assay can be described thus: Ki67 immunocytochemistry of cultured primary MB cells. It is filed as cell-based, mouse. The method, then: MB cells isolated from Ptch1^+/− mice were cultured with NB-B27 culture medium (lacking cholesterol) in the presence of simvastatin or triparanol at designated concentrations.
Cell culture: Primary mouse medulloblastoma cells were isolated from full-blown mouse-derived tumor as described before (Yang et al., 2008, Cancer Cell, 14, 135-145). Obtained cells were cultured on glass coverslips coated with 0.1 mg/ml poly-D-lysine (Millipore, A-003-E). Cells were pulsed with 10 μM of BrdU (Millipore, 19-160) for 2 hours prior to the material collection time point. […]
Histology and immunohistochemistry: Cultured primary MB cells were fixed with 4% PFA on PBS for 15 minutes, permeabilized, and blocked in 10% normal goat serum on PBST (PBS, 0.1% Triton-X100) for 1 hour at room temperature and stained against Ki67 (Abcam, ab15580, 1:1000), NeuN (Abcam, ab104224, 1:200), Caspase 3 (Cell Signaling, 9662, 1:500), BrdU (Sigma-Aldrich, B-8434, 1:500), mCherry (Abcam, ab167453, 1:500), Zic1 (Generous gift from Dr. Sigal, Dana Farber Research Institute, 1:200), S1000 (Sigma-Aldrich, 1:500), YFP (Life Technologies, 1:500).
Prior to BrdU immunostaining, cells were incubated in pH 5.0 buffer for 30 minutes at 37 C. Secondary antibodies were applied at dilution 1:500 on 10% normal goat serum on PBST for 2 hours at room temperature. Samples were counterstained with DAPI and mounted with Fluoromount-G.
MB cells were isolated from Ptc^+/− mouse and cultured in presence of simvastatin (see, FIG. 2A, panels B-D) or triparanol (see, FIG. 2A, panel E), and water-soluble cholesterol (see, FIG. 2A, panels F-J). After 48 hours in vitro, culture cells were fixed, stained against Ki67 (red), and counterstained with DAPI. […] Significance asterisk key: p value <0.05 (*), p<0.01 (**), p<0.001 (***), p<0.0001 (****).

Assay [2] has as its system Hh signaling (Gli1 expression) in MB cells isolated from Ptch1+/− mice. The assay can be described thus: Western blot of Gli1 protein expression in Ptc+/− MB cells. Format: cell-based, mouse. The text has this:
Western blotting: Cells and tissues were lysed in RIPA buffer (Thermo) supplemented with protease (Roche) and phosphatase (Thermo) inhibitors cocktail. Total protein lysates were separated in 8% SDS-PAGE and transferred on PVDF membrane. Membranes were probed with antibodies against Gli1 (Cell Signaling, 1:1000) and GAPDH (Sigma-Aldrich, 1:1000). Western Blot signals were detected with SuperSignal West Pico Substrate and exposed on films. […] Having observed that MB cell proliferation was compromised after cholesterol deficiency, it was postulated that cholesterol may promote Hh pathway activation. Western blotting: Cells and tissues were lysed in RIPA buffer (Thermo) supplemented with protease (Roche) and phosphatase (Thermo) inhibitors cocktail. Total protein lysates were separated in 8% SDS-PAGE and transferred on PVDF membrane. Membranes were probed with antibodies against GLI1 (Cell Signaling, 1:1000), NSDHL (Proteintech, 1:1000), Ptch1 (Novus Biologicals, 1:1000), GAPDH (Sigma-Aldrich, 1:1000). Western Blot signals were detected with SuperSignal West Pico Substrate and exposed on films. MB cells isolated from Ptch1^+/− mice were treated with Simvastatin with and without addition of WSC. At 48 hours after the treatment, cells were harvested to measure Hh signaling through examining Gli1 expression by Western blotting. […]
A general note: In western blotting, separated proteins are transferred to a membrane and probed.

The subject of assay [3] is Hh signaling (Gli1 protein expression) in NIH3T3 cells. The assay can be described thus: Western blot of Gli1 protein in NIH3T3 cells upon Hh treatment. Format: cell-based. An excerpt:
(§1) Having observed that MB cell proliferation was compromised after cholesterol deficiency, it was postulated that cholesterol may promote Hh pathway activation. Western blotting: Cells and tissues were lysed in RIPA buffer (Thermo) supplemented with protease (Roche) and phosphatase (Thermo) inhibitors cocktail. Total protein lysates were separated in 8% SDS-PAGE and transferred on PVDF membrane. Membranes were probed with antibodies against GLI1 (Cell Signaling, 1:1000), NSDHL (Proteintech, 1:1000), Ptch1 (Novus Biologicals, 1:1000), GAPDH (Sigma-Aldrich, 1:1000). Western Blot signals were detected with SuperSignal West Pico Substrate and exposed on films.
MB cells isolated from Ptch1^+/− mice were treated with Simvastatin with and without addition of WSC. At 48 hours after the treatment, cells were harvested to measure Hh signaling through examining Gli1 expression by Western blotting. To further examine the requirement of cholesterol in Hh signal transduction, NIH3T3 cells that have all components involved in Hh signaling were utilized.
FIG. 4 (panels C and D) show Western blot analysis of GLI1 protein expression in Ptcfl/fl (see, FIG. 4, panel C) and SmoM2 MEFs (see, FIG. 4, panel D) following CreYFP carrying lentivirus infection and subsequent simvastatin, triparanol and water soluble cholesterol treatment for 48 hours in vitro. […] GAPDH was used as a loading control. […]

Assay [4] concerns Hh signaling (Gli1 expression) in Ptch1-deficient MEFs. The experiment in a line: Western blot of Gli1 protein in Ptch1-deficient MEFs (Ptch1fl/fl + Cre lentivirus). Format: cell-based, mouse.
From the text: as §1
(§2) Primary mouse embryonic fibroblasts (MEFs) from Ptch1fl/fl mice carrying a proportion of Ptch1 gene flanked by loxp sites (Ellis et al., Genesis, 2003, 36, 158-161), or SmoM2 mice expressing a constitutively activated form of Smo upon Cre recombination (Jeong et al., Genes & Develop., 2004, 18, 937-951) were generated. MEFs were then infected with a lentivirus carrying Cre recombinase to activate Hh signaling, or with an empty vector as a control. At 48 hours after the infection, MEFs were harvested to examine Gli1 protein expression by Western blotting. […]

Assay [5] relates to MB cells. The assay can be described thus: MTT viability assay of MB cells. It is filed as cell-based, mouse. The following applies: after treatment with simvastatin or triparanol.
For assay [6], the system named is Hh signaling (Gli1 protein expression) in Smo-activated MEFs. The experiment in a line: Western blot of Gli1 protein in Smo-activated (SmoM2) MEFs. Format: cell-based, mouse. Conditions: 48 hours.
From the text: as §1, §2

Assay [7] concerns Hh signaling (Ptch1 protein expression) in Gli1-overexpressed NIH3T3 cells. The assay can be described thus: Western blot of Ptch1 protein in Gli1-overexpressed NIH3T3 cells. It is filed as cell-based. The following applies: 48 hours.
From the text: as §1
FIG. 4 (panels C and D) show Western blot analysis of GLI1 protein expression in Ptcfl/fl (see, FIG. 4, panel C) and SmoM2 MEFs (see, FIG. 4, panel D) following CreYFP carrying lentivirus infection and subsequent simvastatin, triparanol and water soluble cholesterol treatment for 48 hours in vitro. […] GAPDH was used as a loading control. […] In the absence of Hh ligand, its receptor Ptch1, tethers pathway effector Smo. Bound to Ptch1, Hh releases Smo, causes activation of Gli1 transcription factor, and leads to transcription of Hh pathway genes (Gli1, Ptch1, etc.). Cholesterol promotes Smo activation during Hh signal transduction. […]

The subject of assay [8] is Ptc+/− MB subcutaneous allograft. The assay can be described thus: Ptc+/− MB subcutaneous allograft in CB17/SCID mice. It is filed as in vivo, mouse. The following applies: vismodegib 5 mg/kg/day, per os.

Structures are written as SMILES.

`CC(C)CCC[C@@H](C)[C@H]1CC[C@H]2[C@@H]3CC=C4C[C@@H](O)CC[C@]4(C)[C@H]3CC[C@]12C` [WSC, cholesterol]: the “tumor cell proliferation over time (Ki67 immunocytochemistry)” value in assay [1] (15 μM WSC, 0 to 96 hours time course) was “prolonged tumor cell proliferation”. Moreover, the “rescue of repressed MB cell proliferation (Ki67)” value in assay [1] (addition of cholesterol after simvastatin or triparanol treatment, 48 hours) is listed as “significantly rescued”. Also, the “MB cell proliferation in control culture (Ki67)” value in assay [1] (exogenous cholesterol, control culture without inhibitor) is “enhanced MB cell proliferation”. Also, the “Gli1 expression levels (western blotting)” value in assay [2] (15 μM WSC, in vitro for 96 hours) is reported as “rescued Gli1 expression levels”. For the same compound, the “Gli1 expression in Simvastatin treated MB cells” value in assay [2] (addition of exogenous cholesterol, 48 hours) was “rescued Gli1 expression”. The “Gli1 protein expression after Simvastatin or Triparanol treatment” value in assay [3] (NIH3T3 cells, exogenous cholesterol added) is given as “upregulated”. In addition, in assay [4] (addition of exogenous cholesterol), the “restoration of Gli1 expression inhibited by simvastatin or triparanol” value is reported as “restored”.
For the compound `CCN(CC)CCOc1ccc(C(O)(Cc2ccc(Cl)cc2)c2ccc(C)cc2)cc1` (centres unmarked) [triparanol], the “percentage of proliferating MB cells (Ki67+)” value in assay [1] (48 hours in culture, NB-B27 medium lacking cholesterol, vs DMSO control) is on record as “Reduced proliferation”. Further, the “proliferation of MB cells by MTT viability assay” value in assay [5] is listed as “Repressed proliferation”. In assay [3] (NIH3T3 cells upon Hh treatment, 48 hours), the Gli1 protein expression result was “significantly repressed”. Also, the Gli1 expression result in assay [4] (48 hours) is “dramatically inhibited”. Moreover, the “up-regulation of Gli1 protein expression” value in assay [6] was “not altered”. Moreover, the “upregulation of Ptch1 protein expression” value in assay [7] is reported as “not altered”.
For `CS(=O)(=O)c1ccc(C(=O)Nc2ccc(Cl)c(-c3ccccn3)c2)c(Cl)c1` [vismodegib (GDC0449), vismodegib], the MB growth entry in assay [8] is on record as “prohibited MB growth”.

Source of the values: US20200171063A1, “Use Of Cholesterol For Promoting Survival And Proliferation Of Primary Medulloblastoma Cells” (Institute For Cancer Research d/b/a The Research Institute …, priority 2017, published 2020).
